Reference: PubChem BioAssay AID2060901 (Molecular Pharmacology Branch, DTP, NCI, 2025)

Test system: 422866-222-R5-J1-PDC complex spheroids viability
Test: Anticancer human tumor 422866-222-R5-J1-PDC patient-derived pancreatic adenocarcinoma cell line growth inhibition [RAS]
Conditions: for IC50: curve of first compound; for viability, T/C: stronger effect = lower value; active = viability on the fitted dose curve at most 10% of control; inactive = the rest
Description: RAS pathway inhibitors in Combinations in Complex Spheroids
A high-throughput screen of multi-cell type tumor spheroids was designed to identify active combinations of RAS pathway inhibitors and targeted small molecules. Complex spheroids include a stromal component modeled by human endothelial cells (HUVEC) and fibroblasts modeled by human mesenchymal stem cells (MSCs). The concentration ranges selected for each drug and investigational agent were based upon clinically achievable concentrations if the clinical Cmax of the agent was known.
Compounds. The drugs and investigational agents: abemaciclib (NSC768073), cobimetinib (NSC768068), divarasib (GDC6063, NSC841802), docetaxel (NSC628503), GDC-1971 (RLY-1971, NSC841576), gemcitabine (NSC613327), inavolisib (NSC800729), ipatasertib (NSC767898), KB-0742 (NSC834161), MRTX-1133 (NSC836407), osimertinib (NSC779217), RMC-4630 (NSC839698), RMC-6236 (NSC851965), RMC-6291 (NSC852671), Ro-3306 (NSC812927), sapanisertib (NSC764658), SN-38 (NSC673596), staurosporine (NSC755774), SY5609 (NSC837396), and tovorafenib (DAY101, NSC766906), were obtained from the National Cancer Institute (NCI) Developmental Therapeutics Program Chemical Repository. The FDA-approved anticancer drug set is available from the NCI Developmental Therapeutics Program. […] The stock solutions were prepared in dimethyl sulfoxide (DMSO, Sigma-Aldrich, St. Louis, MO, cat. D2650) at 800-fold the tested concentration and stored at -70 degrees C prior to their use. All drugs and investigational agents were tested over a range starting from a high concentration at or near the clinical Cmax and decreasing in half-log increments. If the clinical Cmax for an agent had not been determined, the highest concentration tested was 10 microM.
Cell Culture. All cells were maintained in an incubator at 37 degrees C and 5% CO2 with 95% humidity. The PDC lines were cultured according to standard operating procedures established by the NCI PDMR. All PDCs were thawed and cultured in Matrigel-coated flasks prepared with a working solution of 1X Ham's F-12 nutrient mix, without supplementation (Invitrogen, Waltham, MA, cat. 11765054), 100 U/mL penicillin-streptomycin (Invitrogen, cat. 15140122), and 2.5% Matrigel (Corning Inc., Corning, NY, cat. 354248) for the first three passages. The 362531-283-R-J2-PDC and 782815-120-R-J1-PDC lines were cultured in 6C/Colon 1B media, which includes advanced DMEM/F-12 (Thermo Fisher Scientific, cat. 12634028), 10 mM HEPES (Thermo Fisher Scientific, cat. 15630080), 1X GlutaMAX supplement (Thermo Fisher Scientific, cat. 35050061), 0.1 mg/mL primocin (InvivoGen, San Diego, CA, cat. ant-pm-2), 10% defined fetal bovine serum, heat inactivated (HyClone Laboratories Inc., Logan, UT, cat. SH30070.03HI), 50% L-WRN conditioned media (ATCC, cat. CRL-3276), 1.25 mM N-Acetyl-L-cysteine (Sigma-Aldrich, cat. A9165), 10 mM nicotinamide (Sigma-Aldrich, cat. N0636), 1X B-27 supplement (Thermo Fisher Scientific, cat. 17504044), 1X N-2 supplement (Thermo Fisher Scientific, cat. 17502048), 50 ng/mL human EGF (Thermo Fisher Scientific, cat. PHG0311), and 10 microM Y-27632 dihydrochloride (Tocris Bioscience, cat. 1254). The K12877-001-R-J1-PDC line was cultured in 6I media, which includes all 6C/Colon 1B media plus 10 ng/mL human FGF-10 (PeproTech, cat. 100-26), 1 ng/mL human FGF-2 (PeproTech, cat. 100-18B), 1 µM prostaglandin E2 (Tocris Bioscience, cat. 2296), […] hydrocortisone (Sigma-Aldrich, cat. H4001), and […] bovine insulin (Sigma-Aldrich, cat. I6634). The K86415-001-R-J1-PDC line was cultured in 6D media, which includes all 6C/Colon 1B media components minus the L-WRN conditioned media. The 485176-168-R4-J1-PDC was cultured in PANC media, which includes all 6C/Colon 1B media plus 100 ng/mL human FGF-10 (PeproTech, cat. 100-26), 500 nM SB-431542 (Selleckchem, cat. S1067), and 10 nM gastrin (Tocris Bioscience, cat. 3006). […]

[1] = second compound 0.0316 µM, first compound 0.0316 µM
[2] = second compound 0.0316 µM, first compound 0.1 µM
[3] = second compound 0.0316 µM, first compound 0.316 µM
[4] = second compound 0.0316 µM, first compound 1 µM
[5] = second compound 0.1 µM, first compound 0.0316 µM
[6] = second compound 0.1 µM, first compound 0.1 µM
[7] = second compound 0.1 µM, first compound 0.316 µM
[8] = second compound 0.1 µM, first compound 1 µM
[9] = second compound 0.316 µM, first compound 0.0316 µM
[10] = second compound 0.316 µM, first compound 0.1 µM
[11] = second compound 0.316 µM, first compound 0.316 µM
[12] = second compound 0.316 µM, first compound 1 µM
[13] = second compound 1 µM, first compound 0.0316 µM
[14] = second compound 1 µM, first compound 0.1 µM
[15] = second compound 1 µM, first compound 0.316 µM
[16] = second compound 1 µM, first compound 1 µM
[17] = second compound 3.16 µM, first compound 0.0316 µM
[18] = second compound 3.16 µM, first compound 0.1 µM
[19] = second compound 3.16 µM, first compound 0.316 µM
[20] = second compound 3.16 µM, first compound 1 µM
[21] = second compound 10 µM, first compound 0.0316 µM
[22] = second compound 10 µM, first compound 0.1 µM
[23] = second compound 10 µM, first compound 0.316 µM
[24] = second compound 10 µM, first compound 1 µM

CCC(CC)c1cc(NC2CCC(N)C2)n2nccc2n1 (centres undefined) + C#Cc1c(F)ccc2cc(O)cc(-c3ncc4c(N5CC6CCC(C5)N6)nc(OCC56CCCN5CC(F)C6)nc4c3F)c12
0.466 µM: IC50 (second compound 1 µM)
< 0.0316 µM: IC50 (second compound 3.16 µM) | IC50 (second compound 10 µM)
inactive: viability, T/C [1] 97.8% | viability, T/C [2] 104% | viability, T/C [3] 118% | viability, T/C [4] 75.7% | viability, T/C (second compound 0.0316 µM, first compound 3.16 µM) 19.7% | viability, T/C (second compound 0.0316 µM, first compound 10 µM) 36.2% | viability, T/C [5] 99% | viability, T/C [6] 125% | viability, T/C [7] 98.2% | viability, T/C [8] 71.9% | viability, T/C (second compound 0.1 µM, first compound 3.16 µM) 12.5% | viability, T/C (second compound 0.1 µM, first compound 10 µM) 35.3% | viability, T/C [9] 75% | viability, T/C [10] 85.1% | viability, T/C [11] 83.4% | viability, T/C [12] 58.5% | viability, T/C (second compound 0.316 µM, first compound 3.16 µM) 12.3% | viability, T/C (second compound 0.316 µM, first compound 10 µM) 38.6% | viability, T/C [13] 50.2% | viability, T/C [14] 57.9% | viability, T/C [15] 47.8% | viability, T/C [16] 46.1% | viability, T/C (second compound 1 µM, first compound 3.16 µM) 12.7% | viability, T/C (second compound 1 µM, first compound 10 µM) 35.3% | viability, T/C [17] 35.6% | viability, T/C [18] 28.6% | viability, T/C [19] 33.3% | viability, T/C [20] 33.9% | viability, T/C (second compound 3.16 µM, first compound 3.16 µM) 10.5% | viability, T/C (second compound 3.16 µM, first compound 10 µM) 39.9% | viability, T/C [21] 21.7% | viability, T/C [22] 24.9% | viability, T/C [23] 30.2% | viability, T/C [24] 27.6% | viability, T/C (second compound 10 µM, first compound 3.16 µM) 9.17% | viability, T/C (second compound 10 µM, first compound 10 µM) 35%
1.86 µM: IC50 (second compound 0.0316 µM)
1.69 µM: IC50 (second compound 0.1 µM)
1.34 µM: IC50 (second compound 0.316 µM)

CCN1CCN(Cc2ccc(Nc3ncc(F)c(-c4cc(F)c5nc(C)n(C(C)C)c5c4)n3)nc2)CC1 + C#Cc1c(F)ccc2cc(O)cc(-c3ncc4c(N5CC6CCC(C5)N6)nc(OCC56CCCN5CC(F)C6)nc4c3F)c12
> 1 µM: IC50 (second compound 0.0316 µM) | IC50 (second compound 0.1 µM) | IC50 (second compound 0.316 µM)
inactive: viability, T/C (second compound 0.0316 µM, first compound 0.00316 µM) 79% | viability, T/C (second compound 0.0316 µM, first compound 0.01 µM) 103% | viability, T/C [1] 88% | viability, T/C [2] 59.5% | viability, T/C [3] 69.3% | viability, T/C [4] 69.7% | viability, T/C (second compound 0.1 µM, first compound 0.00316 µM) 87.2% | viability, T/C (second compound 0.1 µM, first compound 0.01 µM) 86.3% | viability, T/C [5] 65.3% | viability, T/C [6] 62.4% | viability, T/C [7] 59% | viability, T/C [8] 77.4% | viability, T/C (second compound 0.316 µM, first compound 0.00316 µM) 73.3% | viability, T/C (second compound 0.316 µM, first compound 0.01 µM) 66.4% | viability, T/C [9] 63.3% | viability, T/C [10] 55% | viability, T/C [11] 48.5% | viability, T/C [12] 73.1% | viability, T/C (second compound 1 µM, first compound 0.00316 µM) 48.3% | viability, T/C (second compound 1 µM, first compound 0.01 µM) 51.5% | viability, T/C [13] 43% | viability, T/C [14] 33.5% | viability, T/C [15] 35.4% | viability, T/C [16] 55.8% | viability, T/C (second compound 3.16 µM, first compound 0.00316 µM) 28.2% | viability, T/C (second compound 3.16 µM, first compound 0.01 µM) 32% | viability, T/C [17] 27.7% | viability, T/C [18] 28% | viability, T/C [19] 35.2% | viability, T/C [20] 42.1% | viability, T/C (second compound 10 µM, first compound 0.00316 µM) 23.2% | viability, T/C (second compound 10 µM, first compound 0.01 µM) 22.8% | viability, T/C [21] 21.9% | viability, T/C [22] 19.4% | viability, T/C [23] 25.7% | viability, T/C [24] 35.2%
< 0.00316 µM: IC50 (second compound 1 µM) | IC50 (second compound 3.16 µM) | IC50 (second compound 10 µM)
